# “And” between values parts separate entries of the source, which are not always exact repeats. Identical values can stand only once.
# Molecular target: T1, A3AR H272A^7.43 (Homo sapiens, UniProt P0DMS8, H272A)
# T1 construct: expressed in transfected cells; host or cells: HEK293a
# T1 sequence (P0DMS8 1-318 H272A): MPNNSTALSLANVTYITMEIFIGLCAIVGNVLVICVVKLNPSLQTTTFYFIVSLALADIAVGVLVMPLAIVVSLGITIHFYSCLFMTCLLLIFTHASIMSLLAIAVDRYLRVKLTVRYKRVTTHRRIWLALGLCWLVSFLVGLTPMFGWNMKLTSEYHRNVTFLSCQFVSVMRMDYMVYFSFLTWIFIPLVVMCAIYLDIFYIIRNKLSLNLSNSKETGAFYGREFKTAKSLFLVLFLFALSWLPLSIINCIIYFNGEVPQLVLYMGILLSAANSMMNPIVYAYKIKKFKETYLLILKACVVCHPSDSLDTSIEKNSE
# Test: Gαi1 activation, TruPath BRET assay in HEK293a cells
# Type: cell-based
# Procedure: PEI was added at a 6:1 PEI-to-DNA ratio. Two days post-transfection, plates were washed twice with BRET buffer (HBSS with 10 mM HEPES, pH 7.4). After a 30-min incubation at 37 °C, plates were placed in a PHERAstar plate reader at 37 °C, and four baseline readings were taken using BRET2 filters at 410 ± 80 nm and 515 ± 30 nm. […] BRET2 ratios were calculated as the ratio of GFP2 emission (515 ± 30 nm) to RLuc8 emission (410 ± 80 nm).
# Data were expressed as the mean ± standard error. All binding and Trupath data were analysed using the nonlinear regression curve-fitting programme with Prism 10 (GraphPad, San Diego, CA, USA). For nanoBRET saturation binding experiments, specific binding was calculated by subtracting non-specific binding (defined as binding in the presence of 10 µM MRS1220) from total binding. Specific binding data in each experiment were then normalised to the maximal binding (Bmax) of WT and fit to a one-site specific binding equation: Y =Bmax*[X]/(Kd + [X]). For nanoBRET competition binding experiments, data were normalised to total and non-specific binding responses and fit to a one-site—Fit Ki equation. Trupath's experimental data was baseline-corrected to the initial four baseline reads and then adjusted to the buffer control response. The area under the curve (AUC) for each response was calculated and plotted with a non-linear regression curve (log[agonist] vs response, three-parameter model), using the equation: Y = Bottom + (Top–Bottom)/(1 + 10^((LogEC50-X))). Here, X represents the log dose of the agonist, Y is the BRET2 AUC response, Top and Bottom are the curve plateaus, and EC50 is the agonist concentration yielding a response halfway between the Bottom and Top values. To determine efficacy values. The efficacy of the agonists (τA) was separately calculated using the Black–Leff operational model of agonism[79] using KA values from Table 2 and then corrected for receptor expression relative to WT using Bmax values from Table 1[80]. Significant differences vs WT were determined by one-way ANOVA with a Dunnett’s multiple comparison test. Significance levels are indicated as follows: P ≤ 0.0001****, P = 0.0001–0.001***, P = 0.001–0.01**, and P = 0.01–0.05*.
structure (smiles),measurement,setting,value
"Nc1ncnc2c1ncn2[C@@H]1O[C@H](CO)[C@@H](O)[C@H]1O [Adenosine, adenosine]","log τ (efficacy, operational model, corrected for receptor expression)",,N.R.
same,∆∆BRET Emax,,N.R
same,"Gαi1 activation response (Figure 7F), individual replicates",log [agonist] -3,0.105 and 0.09941
same,"Gαi1 activation response (Figure 7F), individual replicates",log [agonist] -4,0.06736 and 0.02567 and 0.03084
same,"Gαi1 activation response (Figure 7F), individual replicates",log [agonist] -5,0.05631 and 0.02851 and 0.01939
same,"Gαi1 activation response (Figure 7F), individual replicates",log [agonist] -6,0.03915 and 0.06464 and 0.04347
same,"Gαi1 activation response (Figure 7F), individual replicates",log [agonist] -7,0.04202 and 0.01796 and 0.03024
same,"Gαi1 activation response (Figure 7F), individual replicates",log [agonist] -8,0.03672 and 0.03614 and 0.07396
same,"Gαi1 activation response (Figure 7F), individual replicates",log [agonist] -9,0.03473 and 0.04344 and 0.05169

# Reference: publication PMC12361428 (Nature Communications, 2025)
